Calls of active or inactive are those of the source. The calls are words filed in the database; no cut-off is given here.
Columns and labels:
[1] = Vasodilating activity in rat renal preglomerular microvessels assessed as effect on 20-HETE induced sensitization toward phenylephrine at 1 uM relative to 20-HETE; type: functional
[2] = Solubility of compound in water; type: physicochemical
Rattus norvegicus [3] = species on record: Rattus norvegicus; assay: Vasodilating activity in rat gracilis muscle arteriole assessed as change in internal diameter; type: functional
Mus musculus = assay: Reversal of androgen-driven 20-HETE-induced hypertension in Cyp4a14(-/-) mouse assessed as reduction in systolic blood pressure at 10 mg/kg, ip daily and measured for 10 days; type: functional, organism-based
Rattus norvegicus [4] = species on record: Rattus norvegicus; assay: Vasodilating activity in rat gracilis muscle arteriole assessed as inhibition of 20-HETE induced change in internal diameter; type: functional

SMILES	fold change (FC) [1]	also measured
[N-]=[N+]=N[C@@H](CO)CCC/C=C\CCCCCCC/C=C\CCCC(=O)[O-].[Na+]	0.5	–
O=C([O-])CCC/C=C\CCCCCCC/C=C\CCCCO.[Na+]	-0.68	–
O=C([O-])CNC(=O)CCC/C=C\CCCCCCC/C=C\CCCCO.[Na+]	-0.74	–
C[C@H](O)CCC/C=C\CCCCCCC/C=C\CCCC(=O)N[C@@H](CC(=O)[O-])C(=O)[O-].[Na+].[Na+]	-0.59	–
C[C@H](O)CCC/C=C\CCCCCCC/C=C\CCCC(=O)NCC(=O)[O-].[Na+]	–	solubility [2]: 500 µg/mL
C[C@@H](O)CCC/C=C\CCCCCCC/C=C\CCCC(=O)N[C@@H](CC(=O)O)C(=O)O	–	Activity (Rattus norvegicus [3]): inactive; Activity (Mus musculus): Active; Activity (Rattus norvegicus [4]): Dose-dependent effect
CC(O)CCC/C=C\CCCCCCC/C=C\CCCc1nnn[nH]1 (centres undefined)	-0.78	–
CC(O)CCCCCCCCCCCC/C=C\CCCC(=O)[O-].[Na+] (centres undefined)	-0.66	–
CC(O)CCC/C=C\CCCCCCCCCCCCC(=O)[O-].[Na+] (centres undefined)	-0.79	–
C[C@H](O)CCC/C=C\CCCCCCC/C=C\CCCC(=O)[O-].[Na+]	-0.68	solubility [2]: 250 µg/mL
[N-]=[N+]=N[C@H](CO)CCC/C=C\CCCCCCC/C=C\CCCC(=O)[O-].[Na+]	0.16	–
CC(O)CCCC/C=C\CCCCCCC/C=C\CCCC(=O)NCC(=O)[O-].[Na+] (centres undefined)	0.58	–
C[C@@H](O)CCC/C=C\CCCCCCC/C=C\CCCC(=O)[O-].[Na+]	-0.85	solubility [2]: 250 µg/mL
C[C@@H](O)CCC/C=C\CCCCCCC/C=C\CCCC(=O)NCC(=O)[O-].[Na+]	-4.47	solubility [2]: 500 µg/mL
